Reference: ChEMBL document CHEMBL3880390, “Agents for preventing and treating disorders involving modulation of the RYR receptors” (2014)
Each block holds one compound with its values, some of them ahead of it. The source made the active and inactive calls. No cut-off for these calls is given here.

Assays:
Ryanodine receptor 2 = Ryanodine receptor 2 (Homo sapiens, UniProt Q92736); test: Induction of FKBP12.6 re-binding to PKA-phosphorylated-RyR2 (unknown origin) after 30 mins in presence of [35S]-FKBP12.6 by liquid scintillation counting
hERG (KCNH2) [1] = target: T1, hERG (KCNH2) (Homo sapiens, UniProt Q12809); test: Inhibition of human ERG expressed in HEK293 cells at 10 uM after 5 mins at -80 mV holding potential by patch clamp assay; assay type: cell-based; conditions: HEK293 cells expressing human ERG
hERG (KCNH2) [2] = target: T1, hERG (KCNH2); test: Inhibition of human ERG expressed in HEK293 cells at 0.1 uM after 5 mins at -80 mV holding potential by patch clamp assay; assay type: cell-based; conditions: HEK293 cells expressing human ERG
hERG (KCNH2) [3] = target: T1, hERG (KCNH2); test: Inhibition of human ERG expressed in HEK293 cells at 1 uM after 5 mins at -80 mV holding potential by patch clamp assay; assay type: cell-based; conditions: HEK293 cells expressing human ERG
hERG (KCNH2) [4] = target: T1, hERG (KCNH2); test: Inhibition of human ERG expressed in HEK293 cells at 0.01 uM after 5 mins at -80 mV holding potential by patch clamp assay; assay type: cell-based; conditions: HEK293 cells expressing human ERG
Mus musculus [5] = species: Mus musculus; test: Antiarrhythmic activity in haploinsufficient FKBP12.6 expressing mouse assessed as reduction in sustained ventricular tachycardia at 1 uM under testing exercise followed by epinephrine injection relative to control; assay type: functional
Mus musculus [6] = test: Antiarrhythmic activity in haploinsufficient FKBP12.6 expressing mouse assessed as plasma concentration showing prevention of cardiac arrhythmias dosed via osmotic mini-pump under testing exercise followed by epinephrine injection relative to control; assay type: functional, organism-based
Mus musculus [7] = test: Improvement in soleus muscle fatigability in myocardial infarction-induced heart failure calstabin2-deficient knockout mouse at 0.5 mg/kg/day relative to control; assay type: functional, organism-based
[8] = target: Ryanodine receptor 1 (Mus musculus) (UniProt E9PZQ0); test: Normalization of RYR1 in myocardial infarction-induced heart failure mouse soleus muscle assessed as decrease in average channel close dwell time; assay type: tissue-based
[9] = Cardiotoxicity in haploinsufficient FKBP12.6 expressing mouse assessed as reduction in non-sustained ventricular tachycardia at 1 uM under testing exercise followed by epinephrine injection relative to control; assay type: toxicity; conditions: in vivo
Mus musculus [10] = species: Mus musculus; test: Reduction in RyR2 channel opening probability in haploinsufficient FKBP12.6+/- mouse in the presence of […]; assay type: functional
[11] = target: Ryanodine receptor 1 (Mus musculus) (UniProt E9PZQ0); test: Induction of calstabin-2 binding to RyR1 in mouse skeletal muscle at >50 nM
[12] = target: Ryanodine receptor 1 (Mus musculus) (UniProt E9PZQ0); test: Induction of calstabin-2 binding to PKA-phosphorylated RyR1 in mouse skeletal muscle at >50 nM
Mus musculus [13] = test: Antiarrhythmic activity in haploinsufficient FKBP12.6 expressing mouse assessed as plasma concentration showing prevention of sudden cardiac death dosed via osmotic mini-pump under testing exercise followed by epinephrine injection relative to control; assay type: functional, organism-based
[14] = target: Ryanodine receptor 1 (Mus musculus) (UniProt E9PZQ0); test: Normalization of RYR1 in myocardial infarction-induced heart failure mouse soleus muscle assessed as increase in average channel open dwell time; assay type: tissue-based
Mus musculus [15] = test: Reduction in PKA-phosphorylation of RyR2 in myocardial infarction-induced heart failure mouse model at 0.5 mg/kg/hr after 28 days post myocardial infarction; assay type: functional, organism-based
[16] = target: Ryanodine receptor 1 (Mus musculus) (UniProt E9PZQ0); test: Induction of normalization of RYR1 function in mdx dystrophin deficient mouse soleus muscle assessed as increase in channel open probability at 1 uM; assay type: tissue-based
[17] = target: Ryanodine receptor 1 (Mus musculus) (UniProt E9PZQ0); test: Induction of calstabin-1 binding to RYR1 in myocardial infarction-induced heart failure wild type mouse soleus muscle at 0.5 mg/kg/day dosed via implantable osmotic minipumps; assay type: organism-based
[18] = target: Ryanodine receptor 1 (Mus musculus) (UniProt E9PZQ0); test: Induction of normalization of RYR1 function in mdx dystrophin deficient mouse soleus muscle assessed as increase in average channel open dwell time at 1 uM; assay type: tissue-based
Mus musculus [19] = test: Improvement in soleus muscle fatigability in myocardial infarction-induced heart failure mouse model at 0.5 mg/kg/day relative to control; assay type: functional, organism-based
[20] = target: Ryanodine receptor 1 (Mus musculus) (UniProt E9PZQ0); test: Induction of calstabin-1 binding to RyR1 in mouse skeletal muscle at >50 nM
[21] = target: Ryanodine receptor 1 (Mus musculus) (UniProt E9PZQ0); test: Induction of calstabin-1 binding to RYR1 in myocardial infarction-induced heart failure calsiabin2-/- mouse soleus muscle at 0.5 mg/kg/day dosed via implantable osmotic minipumps; assay type: organism-based
[22] = target: Ryanodine receptor 1 (Mus musculus) (UniProt E9PZQ0); test: Induction of calstabin-1 binding to PKA-phosphorylated RyR1 in mouse skeletal muscle at >50 nM
[23] = target: Ryanodine receptor 1 (Mus musculus) (UniProt E9PZQ0); test: Inhibition of PKA-induced RyR1 phosphorylation in myocardial infarction-induced heart failure mouse soleus muscle at 0.5 mg/kg/day dosed via implantable osmotic minipumps; assay type: organism-based
[24] = target: Ryanodine receptor 1 (Mus musculus) (UniProt E9PZQ0); test: Induction of normalization of RYR1 function in mdx dystrophin deficient mouse soleus muscle assessed as decrease in average channel close dwell time at 1 uM; assay type: tissue-based
[25] = Cardiotoxicity in FKBP12.6 deficient mouse implanted with osmotic mini-pump assessed as reduction in resting heart rate in at 0.5 mg/kg/hr for 7 hrs; assay type: toxicity, organism-based; conditions: in vivo
[26] = Cardiotoxicity in haploinsufficient FKBP12.6 expressing mouse implanted with osmotic mini-pump assessed as reduction in resting heart rate in at 0.5 mg/kg/hr for 7 hrs; assay type: toxicity, organism-based; conditions: in vivo
L-type calcium channel = L-type calcium channel (Mus musculus, UniProt Q01815+Q02789+Q99246+Q9JIS7); test: Inhibition of L-type Ca2+ channel in mouse cardiomyocytes at holding potential of -80 or -40 mV by whole cell patch clamp assay; assay type: cell-based

Sequence of Ryanodine receptor 2 (Q92736 whole entry): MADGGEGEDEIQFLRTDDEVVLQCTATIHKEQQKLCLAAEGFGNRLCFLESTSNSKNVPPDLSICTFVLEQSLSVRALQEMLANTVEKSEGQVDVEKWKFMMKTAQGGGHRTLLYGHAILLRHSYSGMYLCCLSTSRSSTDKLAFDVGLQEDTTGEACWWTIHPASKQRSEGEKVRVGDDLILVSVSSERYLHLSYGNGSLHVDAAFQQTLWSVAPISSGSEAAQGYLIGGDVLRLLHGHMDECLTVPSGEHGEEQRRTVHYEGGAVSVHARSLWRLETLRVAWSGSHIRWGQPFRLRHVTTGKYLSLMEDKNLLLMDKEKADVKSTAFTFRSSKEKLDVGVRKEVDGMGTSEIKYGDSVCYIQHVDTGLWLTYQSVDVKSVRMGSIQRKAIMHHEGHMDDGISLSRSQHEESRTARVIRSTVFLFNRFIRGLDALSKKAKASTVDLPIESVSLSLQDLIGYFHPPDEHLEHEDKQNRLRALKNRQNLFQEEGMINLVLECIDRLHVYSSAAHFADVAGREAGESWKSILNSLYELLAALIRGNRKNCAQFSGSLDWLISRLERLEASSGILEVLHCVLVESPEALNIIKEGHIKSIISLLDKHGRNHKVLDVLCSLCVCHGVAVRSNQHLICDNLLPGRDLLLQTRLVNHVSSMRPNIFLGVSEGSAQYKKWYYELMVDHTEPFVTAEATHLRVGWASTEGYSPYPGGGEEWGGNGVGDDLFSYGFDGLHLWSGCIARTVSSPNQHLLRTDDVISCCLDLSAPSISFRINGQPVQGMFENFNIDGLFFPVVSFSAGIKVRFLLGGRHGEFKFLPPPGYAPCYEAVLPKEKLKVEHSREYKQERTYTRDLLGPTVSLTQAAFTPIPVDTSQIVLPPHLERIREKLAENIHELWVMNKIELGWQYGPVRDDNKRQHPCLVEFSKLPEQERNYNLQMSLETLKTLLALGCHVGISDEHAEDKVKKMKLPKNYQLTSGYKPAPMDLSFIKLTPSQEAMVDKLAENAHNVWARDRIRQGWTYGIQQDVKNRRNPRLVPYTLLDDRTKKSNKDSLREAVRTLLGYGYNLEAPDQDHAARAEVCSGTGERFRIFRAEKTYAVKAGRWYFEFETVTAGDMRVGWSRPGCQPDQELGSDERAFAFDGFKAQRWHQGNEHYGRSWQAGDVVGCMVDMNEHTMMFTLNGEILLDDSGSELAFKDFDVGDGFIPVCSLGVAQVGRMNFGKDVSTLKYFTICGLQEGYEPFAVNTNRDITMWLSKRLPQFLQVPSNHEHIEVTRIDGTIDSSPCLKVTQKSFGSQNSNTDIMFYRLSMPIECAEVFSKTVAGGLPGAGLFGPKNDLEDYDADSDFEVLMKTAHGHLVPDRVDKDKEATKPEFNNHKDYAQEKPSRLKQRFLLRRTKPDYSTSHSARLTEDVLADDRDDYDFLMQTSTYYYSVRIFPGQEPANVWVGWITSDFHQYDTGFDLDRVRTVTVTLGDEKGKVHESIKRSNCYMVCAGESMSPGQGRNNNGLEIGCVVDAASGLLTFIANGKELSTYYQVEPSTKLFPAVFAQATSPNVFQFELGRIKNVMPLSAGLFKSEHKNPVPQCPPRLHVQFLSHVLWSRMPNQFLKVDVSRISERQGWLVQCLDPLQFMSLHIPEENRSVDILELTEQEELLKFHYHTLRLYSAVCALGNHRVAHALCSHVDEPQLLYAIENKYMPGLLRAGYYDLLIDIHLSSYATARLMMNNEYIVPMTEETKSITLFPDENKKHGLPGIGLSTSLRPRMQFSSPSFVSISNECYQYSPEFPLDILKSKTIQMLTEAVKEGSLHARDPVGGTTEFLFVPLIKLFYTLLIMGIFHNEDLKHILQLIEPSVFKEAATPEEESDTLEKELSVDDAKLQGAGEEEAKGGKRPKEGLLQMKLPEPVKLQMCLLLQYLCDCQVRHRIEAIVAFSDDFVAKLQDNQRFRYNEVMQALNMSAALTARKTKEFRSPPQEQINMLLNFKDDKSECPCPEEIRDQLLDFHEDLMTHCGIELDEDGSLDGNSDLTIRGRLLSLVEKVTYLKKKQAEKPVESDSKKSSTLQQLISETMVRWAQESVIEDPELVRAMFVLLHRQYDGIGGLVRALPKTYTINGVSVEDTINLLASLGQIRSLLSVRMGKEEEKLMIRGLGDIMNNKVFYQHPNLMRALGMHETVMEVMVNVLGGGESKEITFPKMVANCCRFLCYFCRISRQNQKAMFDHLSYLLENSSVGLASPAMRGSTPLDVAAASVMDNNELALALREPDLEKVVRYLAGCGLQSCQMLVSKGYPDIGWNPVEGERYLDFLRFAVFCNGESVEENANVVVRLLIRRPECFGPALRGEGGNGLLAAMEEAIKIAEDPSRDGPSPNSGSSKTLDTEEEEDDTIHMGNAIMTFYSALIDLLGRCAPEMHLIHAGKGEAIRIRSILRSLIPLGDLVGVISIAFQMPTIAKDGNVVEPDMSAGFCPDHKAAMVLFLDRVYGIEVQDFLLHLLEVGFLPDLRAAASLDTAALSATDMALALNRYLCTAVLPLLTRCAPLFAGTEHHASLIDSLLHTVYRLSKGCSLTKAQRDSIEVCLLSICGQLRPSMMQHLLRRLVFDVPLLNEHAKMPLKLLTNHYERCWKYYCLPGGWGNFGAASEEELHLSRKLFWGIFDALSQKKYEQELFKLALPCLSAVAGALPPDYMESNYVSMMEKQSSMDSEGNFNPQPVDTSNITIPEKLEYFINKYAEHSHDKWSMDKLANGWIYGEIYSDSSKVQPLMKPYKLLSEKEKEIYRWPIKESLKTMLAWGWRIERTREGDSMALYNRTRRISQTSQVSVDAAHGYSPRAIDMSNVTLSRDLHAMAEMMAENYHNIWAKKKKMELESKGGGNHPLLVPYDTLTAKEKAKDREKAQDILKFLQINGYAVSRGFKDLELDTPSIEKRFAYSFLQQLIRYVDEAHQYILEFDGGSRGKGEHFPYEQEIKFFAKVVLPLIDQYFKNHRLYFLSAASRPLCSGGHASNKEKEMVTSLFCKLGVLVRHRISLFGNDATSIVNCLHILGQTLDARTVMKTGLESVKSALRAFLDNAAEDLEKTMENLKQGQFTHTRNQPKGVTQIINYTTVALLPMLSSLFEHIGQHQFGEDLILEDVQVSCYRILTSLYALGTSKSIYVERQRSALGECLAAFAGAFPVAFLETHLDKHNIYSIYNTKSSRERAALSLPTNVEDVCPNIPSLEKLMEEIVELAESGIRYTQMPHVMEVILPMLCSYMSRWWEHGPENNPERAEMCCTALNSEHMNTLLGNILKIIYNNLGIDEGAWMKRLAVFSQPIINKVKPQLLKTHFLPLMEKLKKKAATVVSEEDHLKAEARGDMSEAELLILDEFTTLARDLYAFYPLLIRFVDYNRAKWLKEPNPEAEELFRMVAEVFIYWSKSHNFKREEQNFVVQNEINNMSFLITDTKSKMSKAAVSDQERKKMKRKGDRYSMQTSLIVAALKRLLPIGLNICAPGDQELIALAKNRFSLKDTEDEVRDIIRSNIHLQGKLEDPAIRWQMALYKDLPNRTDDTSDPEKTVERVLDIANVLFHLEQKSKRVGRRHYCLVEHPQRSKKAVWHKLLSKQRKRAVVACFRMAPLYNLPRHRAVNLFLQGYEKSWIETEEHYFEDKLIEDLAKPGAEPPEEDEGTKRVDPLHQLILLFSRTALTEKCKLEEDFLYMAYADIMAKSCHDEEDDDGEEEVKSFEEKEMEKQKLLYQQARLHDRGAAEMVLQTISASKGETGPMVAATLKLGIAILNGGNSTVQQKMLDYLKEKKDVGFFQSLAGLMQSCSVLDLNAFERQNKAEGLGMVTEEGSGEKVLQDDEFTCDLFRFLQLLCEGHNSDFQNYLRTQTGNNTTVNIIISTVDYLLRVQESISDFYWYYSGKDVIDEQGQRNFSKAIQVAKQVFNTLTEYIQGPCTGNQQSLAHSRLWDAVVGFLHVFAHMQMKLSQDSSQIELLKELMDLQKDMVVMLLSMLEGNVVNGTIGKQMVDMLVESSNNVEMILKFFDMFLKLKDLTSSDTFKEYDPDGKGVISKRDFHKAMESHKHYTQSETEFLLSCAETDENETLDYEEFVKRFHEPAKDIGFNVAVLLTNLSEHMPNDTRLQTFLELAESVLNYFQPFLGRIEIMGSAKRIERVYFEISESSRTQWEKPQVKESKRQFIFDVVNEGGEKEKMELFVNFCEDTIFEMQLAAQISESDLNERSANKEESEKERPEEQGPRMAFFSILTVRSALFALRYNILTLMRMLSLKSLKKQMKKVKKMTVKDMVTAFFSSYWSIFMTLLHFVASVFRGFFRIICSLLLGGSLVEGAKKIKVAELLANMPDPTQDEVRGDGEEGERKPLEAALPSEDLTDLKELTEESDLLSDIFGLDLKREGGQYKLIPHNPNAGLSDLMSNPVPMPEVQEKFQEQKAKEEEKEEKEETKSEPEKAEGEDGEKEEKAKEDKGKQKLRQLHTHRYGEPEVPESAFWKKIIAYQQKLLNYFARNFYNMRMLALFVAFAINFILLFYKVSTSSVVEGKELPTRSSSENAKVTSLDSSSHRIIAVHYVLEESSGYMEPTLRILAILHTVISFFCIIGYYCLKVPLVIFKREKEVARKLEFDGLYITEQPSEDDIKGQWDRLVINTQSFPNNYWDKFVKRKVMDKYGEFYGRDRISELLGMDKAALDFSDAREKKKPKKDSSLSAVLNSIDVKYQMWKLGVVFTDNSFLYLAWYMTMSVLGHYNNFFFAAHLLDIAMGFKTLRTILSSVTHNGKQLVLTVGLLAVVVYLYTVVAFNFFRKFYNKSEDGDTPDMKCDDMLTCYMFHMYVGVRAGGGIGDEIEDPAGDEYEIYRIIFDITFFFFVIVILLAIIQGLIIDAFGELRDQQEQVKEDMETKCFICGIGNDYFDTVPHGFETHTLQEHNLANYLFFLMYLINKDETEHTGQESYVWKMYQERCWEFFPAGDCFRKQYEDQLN

EC50 (Ryanodine receptor 2): 100 nM
Compound: c1ccc2c(c1)CNCCS2

Compound: COc1ccc2c(c1)CN(C(=O)c1ccc(N=[N+]=[N-])cc1O)CCS2
inhibition at 5 min, 10 µM (hERG (KCNH2) [1]): 14%
inhibition at 5 min, 0.1 µM (hERG (KCNH2) [2]): 3.6%
inhibition at 5 min, 1 µM (hERG (KCNH2) [3]): 4.1%
inhibition at 5 min, 0.01 µM (hERG (KCNH2) [4]): 1.3%

EC50 (Ryanodine receptor 2): 77 nM
Compound: COc1ccc2c(c1)CN(S(=O)(=O)Nc1cccnc1)CCS2

TIME [8]: 0.000435 to 0.000441 h
Activity [11]: Active
Activity [12]: Active
TIME [14]: 4.17e-07 to 5e-07 h
Activity [16]: Active
Activity [17]: Active
TIME [18]: 4.44e-07 h
Activity [20]: Active
Activity [21]: Active
Activity [22]: Active
inhibition [23]: Active
TIME [24]: 0.000287 h
Compound: COc1ccc2c(c1)CN(C(=O)CCN1CCC(Cc3ccccc3)CC1)CCS2.Cl
Activity (Mus musculus [5]): Active
Cp (Mus musculus [6]): 1 µM
Activity (Mus musculus [7]): Active
Activity [9]: Non-Toxic
Activity (Mus musculus [10]): Active
Cp (Mus musculus [13]): 1 µM
Activity (Mus musculus [15]): Active
Activity (Mus musculus [19]): Active
Activity [25]: Non-Toxic
Activity [26]: Non-Toxic

Compound: COC(=O)C(=O)N1CCSc2ccc(OC)cc2C1
inhibition at 5 min, 10 µM (hERG (KCNH2) [1]): 13.6%
inhibition at 5 min, 0.1 µM (hERG (KCNH2) [2]): 7.3%
inhibition at 5 min, 1 µM (hERG (KCNH2) [3]): 2.7%
inhibition at 5 min, 0.01 µM (hERG (KCNH2) [4]): 0.2%

Compound: COc1ccc2c(c1)CN(C)CCS2
inhibition at 5 min, 10 µM (hERG (KCNH2) [1]): 32.1%
inhibition at 5 min, 0.1 µM (hERG (KCNH2) [2]): 4%
inhibition at 5 min, 1 µM (hERG (KCNH2) [3]): 6.2%
inhibition at 5 min, 0.01 µM (hERG (KCNH2) [4]): 2.9%

Compound: COc1ccc2c(c1)CN([P@@](=O)(OC)c1ccccc1)CCS2
EC50 (Ryanodine receptor 2): 174 nM

Compound: COC(=O)C1=C(C)NC(C)=C(C(=O)OC)C1c1ccccc1[N+](=O)[O-] [NIFEDIPINE]
inhibition (INH) (L-type calcium channel): Active

Compound: COc1ccc2c(c1)CN([P@](=O)(OC)c1ccccc1)CCS2
EC50 (Ryanodine receptor 2): 182 nM
